Data reported in ChEMBL document CHEMBL2074181, “Interactions of glycyrrhizin with organic anion transporting polypeptides of rat and human liver” (Hepatol Res, 2003).

Assays:
[1] = target: T1, Solute carrier organic anion transporter family member 1A2 (Homo sapiens, UniProt P46721); assay: TP_TRANSPORTER: inhibition of E1S uptake (E1S: 0.05 uM, GL: 100 uM) by Glycyrrhizic acid at a concentration of 100 u M in Xenopus laevis oocytes; type: functional, cell-based; conditions: oocyte
T1 sequence (P46721 whole entry): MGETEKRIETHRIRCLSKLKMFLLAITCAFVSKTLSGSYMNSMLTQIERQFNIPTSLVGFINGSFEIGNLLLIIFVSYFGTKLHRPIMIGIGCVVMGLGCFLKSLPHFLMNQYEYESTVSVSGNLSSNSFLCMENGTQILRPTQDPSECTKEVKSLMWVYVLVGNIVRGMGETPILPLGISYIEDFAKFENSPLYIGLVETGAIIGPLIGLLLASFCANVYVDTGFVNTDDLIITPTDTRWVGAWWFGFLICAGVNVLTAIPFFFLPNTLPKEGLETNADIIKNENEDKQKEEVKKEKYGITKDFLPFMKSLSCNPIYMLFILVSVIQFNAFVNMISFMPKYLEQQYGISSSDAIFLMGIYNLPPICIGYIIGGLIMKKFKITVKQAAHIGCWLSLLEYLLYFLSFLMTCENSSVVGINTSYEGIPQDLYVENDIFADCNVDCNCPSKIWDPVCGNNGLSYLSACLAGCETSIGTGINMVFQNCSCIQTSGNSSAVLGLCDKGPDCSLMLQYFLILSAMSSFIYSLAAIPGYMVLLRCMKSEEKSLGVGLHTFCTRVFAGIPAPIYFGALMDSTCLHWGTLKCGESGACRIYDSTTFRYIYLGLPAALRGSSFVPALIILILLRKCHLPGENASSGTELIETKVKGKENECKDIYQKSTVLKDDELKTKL

[2] = target: T2, Solute carrier organic anion transporter family member 1B1 (Homo sapiens, UniProt Q9Y6L6); assay: (§1) TP_TRANSPORTER: inhibition of E1S uptake in Xenopus laevis oocytes; type: functional, cell-based, Oocyte
T2 sequence (Q9Y6L6 whole entry): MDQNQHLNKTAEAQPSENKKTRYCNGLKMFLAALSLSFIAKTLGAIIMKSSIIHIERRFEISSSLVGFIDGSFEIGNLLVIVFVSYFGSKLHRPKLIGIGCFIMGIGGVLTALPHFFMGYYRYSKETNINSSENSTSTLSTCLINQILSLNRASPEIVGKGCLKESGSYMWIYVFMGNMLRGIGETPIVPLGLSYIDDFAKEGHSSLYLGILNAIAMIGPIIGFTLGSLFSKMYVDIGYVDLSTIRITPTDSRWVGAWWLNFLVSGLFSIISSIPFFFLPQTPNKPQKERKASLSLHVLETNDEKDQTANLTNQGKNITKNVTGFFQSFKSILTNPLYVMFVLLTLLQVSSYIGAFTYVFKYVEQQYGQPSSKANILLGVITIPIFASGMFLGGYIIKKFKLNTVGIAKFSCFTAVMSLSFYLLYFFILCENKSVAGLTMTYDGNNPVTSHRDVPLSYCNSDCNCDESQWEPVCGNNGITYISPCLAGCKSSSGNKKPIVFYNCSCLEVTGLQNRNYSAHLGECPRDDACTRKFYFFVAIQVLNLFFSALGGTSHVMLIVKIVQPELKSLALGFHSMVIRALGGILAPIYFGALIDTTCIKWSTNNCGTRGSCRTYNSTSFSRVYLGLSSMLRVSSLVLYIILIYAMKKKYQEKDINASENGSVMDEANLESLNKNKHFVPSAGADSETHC

[3] = target: T3, Solute carrier organic anion transporter family member 1B2 (Rattus norvegicus, UniProt Q9QZX8); assay: as §1; type: functional, cell-based, Oocyte
T3 sequence (Q9QZX8 whole entry): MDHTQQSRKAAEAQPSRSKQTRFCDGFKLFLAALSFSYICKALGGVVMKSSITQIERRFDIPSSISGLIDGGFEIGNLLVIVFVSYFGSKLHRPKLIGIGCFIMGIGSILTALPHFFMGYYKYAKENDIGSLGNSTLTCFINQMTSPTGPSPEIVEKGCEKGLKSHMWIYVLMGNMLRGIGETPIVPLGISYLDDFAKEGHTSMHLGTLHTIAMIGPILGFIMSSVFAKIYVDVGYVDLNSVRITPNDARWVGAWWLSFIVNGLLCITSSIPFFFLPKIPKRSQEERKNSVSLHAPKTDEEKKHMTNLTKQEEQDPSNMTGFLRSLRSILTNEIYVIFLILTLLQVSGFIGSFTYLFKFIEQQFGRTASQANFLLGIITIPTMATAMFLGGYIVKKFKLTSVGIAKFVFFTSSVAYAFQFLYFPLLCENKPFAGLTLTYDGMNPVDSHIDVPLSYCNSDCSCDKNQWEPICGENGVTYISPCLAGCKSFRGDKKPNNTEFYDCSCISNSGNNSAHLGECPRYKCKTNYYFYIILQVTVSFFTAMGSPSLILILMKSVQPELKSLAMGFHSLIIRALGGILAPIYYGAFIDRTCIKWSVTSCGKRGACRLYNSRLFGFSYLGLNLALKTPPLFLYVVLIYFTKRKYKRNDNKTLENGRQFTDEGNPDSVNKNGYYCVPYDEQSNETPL

[4] = target: T4, Solute carrier organic anion transporter family member 1A5 (OATP1A5) (Rattus norvegicus, UniProt O88397); assay: (§2) TP_TRANSPORTER: inhibition of E1S uptake (E1S: 0.05 uM, GL: 100 uM) in Xenopus laevis oocytes; type: functional, cell-based, Oocyte; parameters: scale not given: the % may be the effect or the level left; conditions: Xenopus laevis oocytes expressing OATP1A5, probe E1S (0.05 uM), read-out: Activity
T4 sequence (O88397 whole entry): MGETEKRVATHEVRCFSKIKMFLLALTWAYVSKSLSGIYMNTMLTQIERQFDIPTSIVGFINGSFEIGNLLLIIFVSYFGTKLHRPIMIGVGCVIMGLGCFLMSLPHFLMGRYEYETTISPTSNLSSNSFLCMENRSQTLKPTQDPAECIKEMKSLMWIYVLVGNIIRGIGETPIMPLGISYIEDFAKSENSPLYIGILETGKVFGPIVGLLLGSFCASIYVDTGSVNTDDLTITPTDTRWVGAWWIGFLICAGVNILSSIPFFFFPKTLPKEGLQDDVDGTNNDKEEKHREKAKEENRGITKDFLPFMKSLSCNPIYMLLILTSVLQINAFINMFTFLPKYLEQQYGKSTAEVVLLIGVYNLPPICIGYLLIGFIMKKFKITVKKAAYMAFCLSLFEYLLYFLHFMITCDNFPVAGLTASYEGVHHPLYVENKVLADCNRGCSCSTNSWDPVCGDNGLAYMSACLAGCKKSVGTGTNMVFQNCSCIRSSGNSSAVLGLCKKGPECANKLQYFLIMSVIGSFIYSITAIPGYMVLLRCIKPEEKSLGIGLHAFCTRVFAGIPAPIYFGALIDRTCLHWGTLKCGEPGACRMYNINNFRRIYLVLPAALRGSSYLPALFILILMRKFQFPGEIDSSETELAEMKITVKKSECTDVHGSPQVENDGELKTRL

[5] = target: T5, Solute carrier organic anion transporter family member 1A4 (OATP1A4) (Rattus norvegicus, UniProt O35913); assay: as §2; type: functional, cell-based, Oocyte; parameters: scale not given: the % may be the effect or the level left; conditions: Xenopus laevis oocytes expressing OATP1A4, probe E1S (0.05 uM), read-out: Activity
T5 sequence (O35913 whole entry): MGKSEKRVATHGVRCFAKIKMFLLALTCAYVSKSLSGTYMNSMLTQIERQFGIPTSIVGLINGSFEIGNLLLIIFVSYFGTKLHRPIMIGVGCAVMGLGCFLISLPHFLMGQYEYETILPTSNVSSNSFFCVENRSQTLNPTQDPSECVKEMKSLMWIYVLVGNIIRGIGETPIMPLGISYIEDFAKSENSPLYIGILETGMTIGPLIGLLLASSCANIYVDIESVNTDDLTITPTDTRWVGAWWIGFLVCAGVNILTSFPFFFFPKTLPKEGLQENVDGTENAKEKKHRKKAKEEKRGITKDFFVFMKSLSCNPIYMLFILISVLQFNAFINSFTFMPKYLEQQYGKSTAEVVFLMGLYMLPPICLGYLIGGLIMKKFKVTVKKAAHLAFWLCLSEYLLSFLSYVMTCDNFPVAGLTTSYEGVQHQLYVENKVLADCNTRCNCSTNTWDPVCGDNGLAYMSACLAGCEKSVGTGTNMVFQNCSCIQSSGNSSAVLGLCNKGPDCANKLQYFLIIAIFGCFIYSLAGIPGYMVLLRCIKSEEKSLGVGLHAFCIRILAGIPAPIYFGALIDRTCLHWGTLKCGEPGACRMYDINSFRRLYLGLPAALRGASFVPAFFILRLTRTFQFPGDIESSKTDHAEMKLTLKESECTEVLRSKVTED

[6] = target: T6, Solute carrier organic anion transporter family member 1B3 (OATP1B3) (Homo sapiens, UniProt Q9NPD5); assay: as §2; type: functional, cell-based, Oocyte; parameters: scale not given: the % may be the effect or the level left; conditions: Xenopus laevis oocytes expressing OATP1B3, probe E1S (0.05 uM), read-out: Activity
T6 sequence (Q9NPD5 whole entry): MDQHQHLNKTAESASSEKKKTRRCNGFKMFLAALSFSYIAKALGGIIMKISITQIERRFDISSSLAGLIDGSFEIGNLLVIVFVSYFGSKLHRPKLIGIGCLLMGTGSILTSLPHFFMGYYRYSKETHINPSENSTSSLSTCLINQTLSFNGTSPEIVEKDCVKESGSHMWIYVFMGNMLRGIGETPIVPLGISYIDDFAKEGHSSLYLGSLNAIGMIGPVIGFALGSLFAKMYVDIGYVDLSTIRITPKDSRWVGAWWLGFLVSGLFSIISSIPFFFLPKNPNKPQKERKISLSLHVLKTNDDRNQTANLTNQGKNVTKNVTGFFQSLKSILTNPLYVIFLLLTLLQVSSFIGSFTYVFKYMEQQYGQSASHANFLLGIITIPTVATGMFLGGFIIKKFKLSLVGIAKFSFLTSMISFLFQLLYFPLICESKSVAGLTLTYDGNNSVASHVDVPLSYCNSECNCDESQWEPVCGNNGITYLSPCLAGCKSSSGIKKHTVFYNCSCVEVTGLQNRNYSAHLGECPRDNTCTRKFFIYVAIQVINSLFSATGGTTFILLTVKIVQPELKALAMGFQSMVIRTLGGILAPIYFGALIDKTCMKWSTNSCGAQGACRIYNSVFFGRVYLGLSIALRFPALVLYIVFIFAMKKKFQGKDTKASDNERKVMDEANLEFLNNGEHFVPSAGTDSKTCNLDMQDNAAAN

[7] = target: T7, Solute carrier organic anion transporter family member 2B1 (Homo sapiens, UniProt O94956); assay: TP_TRANSPORTER: inhibition of E1S uptake (E1S: 0.05 uM, GL: 100 uM) of Glycyrrhizic acid at a concentration of 100 u M in Xenopus laevis oocytes; type: functional, cell-based; conditions: oocyte
T7 sequence (O94956 whole entry): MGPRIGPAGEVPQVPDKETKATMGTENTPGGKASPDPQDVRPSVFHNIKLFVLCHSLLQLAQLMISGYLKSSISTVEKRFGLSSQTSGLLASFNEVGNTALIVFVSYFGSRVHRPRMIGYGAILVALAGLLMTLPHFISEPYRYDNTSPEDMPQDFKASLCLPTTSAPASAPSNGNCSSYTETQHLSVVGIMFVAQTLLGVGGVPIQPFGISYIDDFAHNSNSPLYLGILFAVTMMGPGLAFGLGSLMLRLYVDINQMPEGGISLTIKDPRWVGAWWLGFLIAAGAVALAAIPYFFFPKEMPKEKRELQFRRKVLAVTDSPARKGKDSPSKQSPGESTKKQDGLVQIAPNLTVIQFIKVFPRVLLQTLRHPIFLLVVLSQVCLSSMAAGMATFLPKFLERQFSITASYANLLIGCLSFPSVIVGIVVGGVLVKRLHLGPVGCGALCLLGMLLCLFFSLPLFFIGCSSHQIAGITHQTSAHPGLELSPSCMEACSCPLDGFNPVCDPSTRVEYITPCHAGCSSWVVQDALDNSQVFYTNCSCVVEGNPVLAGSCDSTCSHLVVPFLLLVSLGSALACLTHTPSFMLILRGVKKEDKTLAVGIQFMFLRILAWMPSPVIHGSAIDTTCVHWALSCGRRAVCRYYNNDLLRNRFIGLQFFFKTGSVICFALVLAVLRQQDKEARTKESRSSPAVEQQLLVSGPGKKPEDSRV

[8] = target: T8, Solute carrier organic anion transporter family member 1A1 (Rattus norvegicus, UniProt P46720); assay: as §2; type: functional, cell-based; parameters: scale not given: the % may be the effect or the level left; conditions: oocyte
T8 sequence (P46720 whole entry): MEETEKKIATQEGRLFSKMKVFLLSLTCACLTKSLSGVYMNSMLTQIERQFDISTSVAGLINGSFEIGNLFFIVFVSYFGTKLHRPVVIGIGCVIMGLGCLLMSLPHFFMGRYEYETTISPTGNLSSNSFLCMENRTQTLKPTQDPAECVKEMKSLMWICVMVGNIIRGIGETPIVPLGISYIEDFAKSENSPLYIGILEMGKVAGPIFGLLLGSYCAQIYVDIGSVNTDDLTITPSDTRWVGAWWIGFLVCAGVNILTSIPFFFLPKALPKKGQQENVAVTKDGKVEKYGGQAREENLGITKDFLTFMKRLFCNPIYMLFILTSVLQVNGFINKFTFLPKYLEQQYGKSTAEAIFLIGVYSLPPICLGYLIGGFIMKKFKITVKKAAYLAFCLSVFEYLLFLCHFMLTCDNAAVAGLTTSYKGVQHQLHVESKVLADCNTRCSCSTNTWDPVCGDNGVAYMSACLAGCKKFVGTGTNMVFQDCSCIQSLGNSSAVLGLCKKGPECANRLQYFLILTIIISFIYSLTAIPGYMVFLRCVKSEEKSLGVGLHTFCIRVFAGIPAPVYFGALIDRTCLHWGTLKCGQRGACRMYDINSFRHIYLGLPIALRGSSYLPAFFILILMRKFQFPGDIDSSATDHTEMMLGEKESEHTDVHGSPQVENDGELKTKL

[9] = target: T9, Solute carrier organic anion transporter family member 1B3 (Homo sapiens, UniProt Q9NPD5); assay: TP_TRANSPORTER: inhibition of BSP uptake in Xenopus laevis oocytes; type: functional, cell-based, Oocyte
T9 sequence (Q9NPD5 whole entry): T6 sequence (Q9NPD5 whole entry)

**Q.** What does the source list for `CC1(C)[C@@H](O[C@H]2O[C@H](C(=O)O)[C@@H](O)[C@H](O)[C@H]2O[C@@H]2O[C@H](C(=O)O)[C@@H](O)[C@H](O)[C@H]2O)CC[C@]2(C)[C@H]3C(=O)C=C4[C@@H]5C[C@@](C)(C(=O)O)CC[C@]5(C)CC[C@@]4(C)[C@]3(C)CC[C@@H]12` [GLYCYRRHIZIN]?
**A.** Activity [1]: is not an inhibitor [-]; Ki [2]: 15.9 µM; Ki [3]: 6.1 µM; activity at 100 µM [4]: 51%; activity at 100 µM [5]: 47%; activity at 100 µM [6]: 0%; Activity [7]: is not an inhibitor [-]; Activity [8]: 52%; Ki [9]: 12.5 µM
